Reference: PubChem BioAssay AID330 (DTP/NCI, 2004)
“And” between values parts separate entries of the source, which are not always exact repeats. Identical values can stand only once. Inconclusive results and toxic doses are left out. How the source made its calls: active means survival T/C of 150% or more; inactive means T/C below 125% in these data. Square brackets hold non-standard residues; d marks the D form. Peptide text beside a SMILES is read from it. * marks the point of attachment. ξ: configuration not given here. Cbz = O=C(OCc1ccccc1)*; ξT = CC(O)C(N)C(=O)O; OBn = c1ccc(CO*)cc1

System: P388 leukemia ip, CD2F1 mice, survival T/C
Assay: NCI In Vivo Anticancer Drug Screen. Data for tumor model P388 Leukemia (intraperitoneal) in CD2F1 (CDF1) mice
Settings: endpoint: median survival time, higher = longer survival
Procedure, shortened: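 Mice carrying the transplanted tumor received test compound or vehicle. Survival was recorded in each group, and the value is the treated-group measurement divided by that of the vehicle-treated control group.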

[1] = dose: 50.0 mg/kg/injection, schedule: Q01DX009 (ip), vehicle: Klucel (hydroxypropylcellulose) (HPC)
[2] = dose: 100.0 mg/kg/injection, schedule: Q01DX009 (ip), vehicle: Klucel (hydroxypropylcellulose) (HPC)
[3] = dose: 200.0 mg/kg/injection, schedule: Q01DX009 (ip), vehicle: Klucel (hydroxypropylcellulose) (HPC)
[4] = dose: 60.0 mg/kg/injection, schedule: Q01DX005 (ip), vehicle: saline with Tween-80
[5] = dose: 120.0 mg/kg/injection, schedule: Q01DX005 (ip), vehicle: saline with Tween-80
[6] = dose: 240.0 mg/kg/injection, schedule: Q01DX005 (ip), vehicle: saline with Tween-80
[7] = dose: 50.0 mg/kg/injection, schedule: Q01DX005 (ip), vehicle: saline with Tween-80
[8] = dose: 100.0 mg/kg/injection, schedule: Q01DX005 (ip), vehicle: saline with Tween-80
[9] = dose: 60.0 mg/kg/injection, schedule: Q01DX005 (ip), vehicle: Klucel (hydroxypropylcellulose) (HPC)
[10] = dose: 120.0 mg/kg/injection, schedule: Q01DX005 (ip), vehicle: Klucel (hydroxypropylcellulose) (HPC)
[11] = dose: 240.0 mg/kg/injection, schedule: Q01DX005 (ip), vehicle: Klucel (hydroxypropylcellulose) (HPC)
[12] = dose: 200.0 mg/kg/injection, schedule: Q01DX005 (ip), vehicle: saline with Tween-80

Measured: T/C

CCNc1ccc2ccccc2c1N=Nc1ccc(N=Nc2ccccc2)cc1
inactive: dose: 25.0 mg/kg/injection, schedule: Q01DX009 (ip), vehicle: saline with Tween-80 90 % of control | dose: 50.0 mg/kg/injection, schedule: Q01DX009 (ip), vehicle: saline with Tween-80 90 % of control and 94 % of control | dose: 100.0 mg/kg/injection, schedule: Q01DX009 (ip), vehicle: saline with Tween-80 95 % of control | dose: 200.0 mg/kg/injection, schedule: Q01DX009 (ip), vehicle: saline with Tween-80 100 % of control

O=C1CSC(=S)N1c1cc(Cl)c(Cl)cc1Cl
inactive: dose: 50.0 mg/kg/injection, schedule: Q01DX009 (ip), vehicle: suspension in saline 102 % of control | dose: 100.0 mg/kg/injection, schedule: Q01DX009 (ip), vehicle: suspension in saline 100 % of control | dose: 200.0 mg/kg/injection, schedule: Q01DX009 (ip), vehicle: suspension in saline 93 % of control

Cc1cc(Cl)nc2c1ccn2C1OCC(O)C(O)C1O (stereo not given)
inactive: dose: 16.0 mg/kg/injection, schedule: Q01DX001 (ip), vehicle: saline with Tween-80 102 % of control and 107 % of control | dose: 32.0 mg/kg/injection, schedule: Q01DX001 (ip), vehicle: saline with Tween-80 98 % of control and 107 % of control | dose: 64.0 mg/kg/injection, schedule: Q01DX001 (ip), vehicle: saline with Tween-80 107 % of control

O=C(Nc1ccccc1Cl)OCC(CCl)(CCl)CCl
inactive: [1] 100 % of control | [2] 106 % of control | [3] 95 % of control

CCCN1C(=O)CC(c2ccc(OC)c(OC)c2)C1=O (stereo not given)
inactive: [4] 90 % of control | [5] 90 % of control | [6] 90 % of control

O=[N+]([O-])c1ccc(S(=O)(=O)O)cc1 (tested in a mixture with another compound)
inactive: dose: 100.0 mg/kg/injection, schedule: Q04DX003 (ip), vehicle: saline with Tween-80 98 % of control | dose: 200.0 mg/kg/injection, schedule: Q04DX003 (ip), vehicle: saline with Tween-80 101 % of control | dose: 400.0 mg/kg/injection, schedule: Q04DX003 (ip), vehicle: saline with Tween-80 86 % of control

CCCCCCCCCCCCC1=C(O)C(=O)C=C(O)C1=O
inactive: dose: 12.5 mg/kg/injection, schedule: Q01DX005 (ip), vehicle: suspension in saline 102 % of control | dose: 25.0 mg/kg/injection, schedule: Q01DX005 (ip), vehicle: suspension in saline 108 % of control | dose: 50.0 mg/kg/injection, schedule: Q01DX005 (ip), vehicle: saline 99 % of control | dose: 50.0 mg/kg/injection, schedule: Q01DX005 (ip), vehicle: suspension in saline 112 % of control

Clc1ccc2c(NCCCC3CCCN4CCCCC34)ccnc2c1 (stereo not given)
inactive: dose: 50.0 mg/kg/injection, schedule: Q01DX005 (ip), vehicle: Klucel (hydroxypropylcellulose) (HPC) 99 % of control | dose: 100.0 mg/kg/injection, schedule: Q01DX005 (ip), vehicle: Klucel (hydroxypropylcellulose) (HPC) 98 % of control

COc1ccc2c(c1)C(O)(CN)CCCCC(OC)CCCC2 (stereo not given)
inactive: dose: 7.5 mg/kg/injection, schedule: Q01DX005 (ip), vehicle: saline with Tween-80 100 % of control | dose: 15.0 mg/kg/injection, schedule: Q01DX005 (ip), vehicle: saline with Tween-80 101 % of control | dose: 30.0 mg/kg/injection, schedule: Q01DX005 (ip), vehicle: saline with Tween-80 99 % of control | [4] 101 % of control

O=C(NCCCl)Nc1ccn(C(=O)NCCCl)c(=O)n1
inactive: [7] 95 % of control | [8] 100 % of control

COc1ccc(C(=O)N2CC(OC(C)=O)=CC2=O)cc1
inactive: [1] 107 % of control | [2] 110 % of control | [3] 106 % of control

COc1cccc(CC#N)c1O
inactive: dose: 25.0 mg/kg/injection, schedule: Q01DX009 (ip), vehicle: Klucel (hydroxypropylcellulose) (HPC) 105 % of control | [1] 100 % of control | [2] 106 % of control

O=C(CCCO)c1nc2ccccc2s1
inactive: [9] 106 % of control | [10] 101 % of control | [11] 100 % of control

COc1ccc(C(O)OC2CC3C=CC2C3)cc1 (stereo not given)
inactive: dose: 12.5 mg/kg/injection, schedule: Q01DX009 (ip), vehicle: other 114 % of control | dose: 25.0 mg/kg/injection, schedule: Q01DX009 (ip), vehicle: other 110 % of control | dose: 50.0 mg/kg/injection, schedule: Q01DX009 (ip), vehicle: other 114 % of control | dose: 100.0 mg/kg/injection, schedule: Q01DX009 (ip), vehicle: other 114 % of control | dose: 200.0 mg/kg/injection, schedule: Q01DX009 (ip), vehicle: other 111 % of control

CC(O)C(NC(=O)OCc1ccccc1)C(=O)NCC(=O)NCC(=O)OCc1ccccc1 (stereo not drawn) (Cbz-[ξT]-Gly-Gly-OBn)
inactive: [7] 106 % of control | [8] 100 % of control | [12] 106 % of control

O=C(O)C1CCC(=O)N1Cc1ccccc1 (stereo not given)
inactive: [1] 89 % of control | [2] 100 % of control | [3] 107 % of control

O=C(/C(=C\c1ccccc1[N+](=O)[O-])S(=O)(=O)c1ccccc1)c1ccc([N+](=O)[O-])cc1
inactive: [7] 98 % of control | [8] 103 % of control | [12] 95 % of control

CC(C)(C)[Si]1(C(C)(C)C)N([Si](C)(C)C)N1[Si](C)(C)C (stereo not given)
inactive: dose: 60.0 mg/kg/injection, schedule: Q01DX005 (ip), vehicle: saline 106 % of control | dose: 120.0 mg/kg/injection, schedule: Q01DX005 (ip), vehicle: saline 100 % of control | dose: 240.0 mg/kg/injection, schedule: Q01DX005 (ip), vehicle: saline 105 % of control

NC(=S)N/N=C\c1[nH]c(=O)nc2ccccc12
inactive: [2] 100 % of control | [3] 100 % of control | dose: 400.0 mg/kg/injection, schedule: Q01DX009 (ip), vehicle: Klucel (hydroxypropylcellulose) (HPC) 100 % of control

C/C(=C/Cc1ccccc1)C(=O)O
inactive: dose: 100.0 mg/kg/injection, schedule: Q01DX001 (ip), vehicle: saline with Tween-80 108 % of control | dose: 200.0 mg/kg/injection, schedule: Q01DX001 (ip), vehicle: saline with Tween-80 108 % of control | dose: 400.0 mg/kg/injection, schedule: Q01DX001 (ip), vehicle: saline with Tween-80 99 % of control

O=C1c2cc(Cl)ccc2OC2CCON12 (stereo not given)
inactive: [1] 108 % of control | [2] 110 % of control | [3] 116 % of control

CC[N+](C)(CC)CCl
inactive: dose: 7.5 mg/kg/injection, schedule: Q01DX005 (ip), vehicle: saline 104 % of control | dose: 15.0 mg/kg/injection, schedule: Q01DX005 (ip), vehicle: saline 99 % of control

O=C(CCc1c[nH]c2ccccc12)c1ccccc1O
inactive: [4] 98 % of control | [5] 100 % of control | [6] 92 % of control

O[C@H]1c2cccn2-c2ccccc2S[C@H]1c1ccccc1
inactive: [9] 91 % of control | [10] 94 % of control | [11] 102 % of control

C=C1CCC2C(C)(C(=O)O)CCCC2(C)C1CCc1ccoc1 (stereo not given)
inactive: dose: 12.75 mg/kg/injection, schedule: Q01DX005 (ip), vehicle: Klucel + Tween-80 102 % of control | dose: 25.5 mg/kg/injection, schedule: Q01DX005 (ip), vehicle: Klucel + Tween-80 96 % of control | dose: 51.0 mg/kg/injection, schedule: Q01DX005 (ip), vehicle: Klucel + Tween-80 110 % of control | dose: 102.0 mg/kg/injection, schedule: Q01DX005 (ip), vehicle: Klucel + Tween-80 110 % of control

CCSc1nc(Cl)cc(Sc2nc(N)nc3nc[nH]c23)n1
inactive: dose: 12.0 mg/kg/injection, schedule: Q01DX009 (ip), vehicle: saline with Tween-80 90 % of control | dose: 18.0 mg/kg/injection, schedule: Q01DX009 (ip), vehicle: saline with Tween-80 90 % of control | dose: 26.0 mg/kg/injection, schedule: Q01DX009 (ip), vehicle: saline with Tween-80 100 % of control | dose: 40.0 mg/kg/injection, schedule: Q01DX009 (ip), vehicle: saline with Tween-80 104 % of control | dose: 60.0 mg/kg/injection, schedule: Q01DX009 (ip), vehicle: saline with Tween-80 100 % of control | dose: 88.0 mg/kg/injection, schedule: Q01DX009 (ip), vehicle: saline with Tween-80 90 % of control | dose: 132.0 mg/kg/injection, schedule: Q01DX009 (ip), vehicle: saline with Tween-80 86 % of control

CCCCCCCCCCCCCCN1CCSCC1
inactive: dose: 50.0 mg/kg/injection, schedule: Q01DX009 (ip), vehicle: saline 101 % of control | dose: 100.0 mg/kg/injection, schedule: Q01DX009 (ip), vehicle: saline 99 % of control

CCOC(=O)C/C(O)=C(\N=Nc1nc[nH]c1C(N)=O)C(=O)OCC
inactive: [7] 105 % of control | [8] 91 % of control | [12] 97 % of control
